Experimental findings from ChEMBL document CHEMBL3822439, “Discovery of a novel 6,7-disubstituted-4-(2-fluorophenoxy)quinolines bearing 1,2,3-triazole-4-carboxamide moiety as potent c-Met kinase inhibitors” (Eur J Med Chem, 2016) are described below.

Molecules are shown by their SMILES.

One assay deals with HT-29. Kind of assay: Cytotoxicity against human HT-29 cells measured after 72 hrs by MTT assay. To be noted: HT-29, 72 h.
Assay [1] can be described thus: Cytotoxicity against human H460 cells measured after 72 hrs by MTT assay. To be noted: NCI-H460, 72 h.
The subject of the next assay is A549. Kind of assay: Cytotoxicity against human A549 cells measured after 72 hrs by MTT assay. Particulars: A549, 72 h. It counts as functional, cell-based. Background: Formazan colour is commonly taken as a measure of viable cells.
The nature of assay [2]: Cytotoxicity against human MKN45 cells measured after 72 hrs by MTT assay. It counts as functional, cell-based. To be noted: MKN-45, 72 h.

Usually IC50 stands for the point on the concentration scale where inhibition reaches its midpoint. Read a high IC50 as lower potency. Regarding `COc1cc2c(Oc3ccc(NC(=O)c4cn(-c5ccccc5)nn4)cc3F)ccnc2cc1OCCCN1CCCC1`, the IC50 was 180 nM in the assay with HT-29, 280 nM in assay [1], 360 nM with A549 and 260 nM in assay [2].
Take `COc1cc2c(Oc3ccc(NC(=O)c4cn(-c5c(Cl)cccc5Cl)nn4)cc3F)ccnc2cc1OCCCN1CCC(C)CC1`: the IC50 in the assay with HT-29 is 1390 nM; in assay [1], 270 nM; in the assay on A549, 320 nM; in assay [2] it was 120 nM.
For `COc1cc2c(Oc3ccc(NC(=O)c4cn(-c5ccccc5F)nn4)cc3F)ccnc2cc1OCCCN1CCCCC1`, the IC50 in the assay on HT-29 amounted to 290 nM; in assay [1], 210 nM; with A549, 2770 nM; in assay [2], 1290 nM.
`COc1cc2c(Oc3ccc(NC(=O)c4cn(-c5ccccc5C)nn4)cc3F)ccnc2cc1OCCCN1CCCCC1`: the IC50 with HT-29 came out at 1340 nM; in assay [1], 2100 nM; in the assay with A549, 3230 nM; in assay [2], 3250 nM.
`COc1cc2c(Oc3ccc(NC(=O)c4cn(-c5c(Cl)cccc5Cl)nn4)cc3F)ccnc2cc1OCCCN1CCOCC1`: the IC50 in the assay on HT-29 came out at 270 nM; in assay [1] it was 290 nM; in assay [2], 110 nM.
As to `COc1cc2c(Oc3ccc(NC(=O)c4cn(-c5ccccc5F)nn4)cc3F)ccnc2cc1OCCCN1CCN(C)CC1`, the half-maximal inhibitory concentration (IC50) came to 300 nM with HT-29, 230 nM in assay [1], 250 nM with A549 and 140 nM in assay [2].
Turning to `COc1cc2c(Oc3ccc(NC(=O)c4cn(-c5c(C)cccc5C)nn4)cc3F)ccnc2cc1OCCCN1CCOCC1`, the IC50 in the assay with HT-29 came to 6140 nM; in assay [1] it was 4320 nM.
On to `COc1cc2c(Oc3ccc(NC(=O)c4cn(-c5ccccc5Cl)nn4)cc3F)ccnc2cc1OCCCN1CCC(C)CC1`, for which the IC50 with HT-29 stood at 130 nM; in assay [1], 230 nM; in the assay on A549, 370 nM; in assay [2], 240 nM.
With `COc1cc2c(Oc3ccc(NC(=O)c4cn(-c5ccc(Br)cc5)nn4)cc3F)ccnc2cc1OCCCN1CCOCC1`, the IC50 in the assay on HT-29 was determined as 260 nM; in assay [1] it was 130 nM; in the assay with A549 it was 180 nM; in assay [2], 90 nM.
Take `COc1cc2c(Oc3ccc(NC(=O)c4cn(-c5ccccc5)nn4)cc3F)ccnc2cc1OCCCN1CCN(C)CC1`: the half-maximal inhibitory concentration (IC50) in the assay on HT-29 came to 180 nM; in assay [1], 200 nM; in the assay on A549 it was 160 nM; in assay [2], 60 nM.
On to `COc1cc2c(Oc3ccc(NC(=O)c4cn(-c5ccc(F)c(F)c5)nn4)cc3F)ccnc2cc1OCCCN1CCCCC1`, for which the IC50 with HT-29 came out at 210 nM; in assay [1], 250 nM; with A549, 220 nM; in assay [2] it was 310 nM.
As to `COc1cc2c(Oc3ccc(NC(=O)c4cn(-c5c(C)cccc5C)nn4)cc3F)ccnc2cc1OCCCN1CCN(C)CC1`, the IC50 with HT-29 worked out at 2170 nM; in assay [1], 4540 nM; with A549 it was 2180 nM.
In the case of `COc1cc2c(Oc3ccc(NC(=O)c4cn(-c5ccccc5)nn4)cc3F)ccnc2cc1OCCCN1CCCCC1`, the half-maximal inhibitory concentration (IC50) in the assay on HT-29 was found to be 180 nM; in assay [1] it was 210 nM; in the assay with A549, 130 nM; in assay [2], 100 nM.
Turning to `COc1cc2c(Oc3ccc(NC(=O)c4cn(-c5ccc(F)c(F)c5)nn4)cc3F)ccnc2cc1OCCCN1CCC(C)CC1`, the IC50 worked out at 810 nM with HT-29, 260 nM in assay [1], 1460 nM in the assay on A549 and 1290 nM in assay [2].
In the case of `COc1cc2c(Oc3ccc(NC(=O)c4cn(-c5c(C)cccc5C)nn4)cc3F)ccnc2cc1OCCCN1CCC(C)CC1`, the IC50 with HT-29 turned out to be 2450 nM; in assay [1], 2360 nM; in the assay on A549, 3340 nM; in assay [2], 4310 nM.
In the case of `COc1cc2c(Oc3ccc(NC(=O)c4cn(-c5ccccc5C)nn4)cc3F)ccnc2cc1OCCCN1CCN(C)CC1`, the IC50 is 1430 nM in the assay with HT-29, 3650 nM in assay [1] and 3100 nM in the assay with A549.
In the case of `COc1cc2c(Oc3ccc(NC(=O)c4cn(-c5ccccc5)nn4)cc3F)ccnc2cc1OCCCN1CCC(C)CC1`, the IC50 turned out to be 190 nM with HT-29, 210 nM in assay [1], 140 nM in the assay with A549 and 90 nM in assay [2].
Regarding `COc1cc2c(Oc3ccc(NC(=O)c4cn(-c5ccccc5F)nn4)cc3F)ccnc2cc1OCCCN1CCC(C)CC1`, the IC50 in the assay on HT-29 turned out to be 210 nM; in assay [1] it was 190 nM; with A549, 250 nM; in assay [2], 130 nM.
Turning to `COc1cc2c(Oc3ccc(NC(=O)c4cn(-c5ccccc5Cl)nn4)cc3F)ccnc2cc1OCCCN1CCCC1`, the half-inhibitory concentration (IC50) in the assay with HT-29 stood at 150 nM; in assay [1] it was 190 nM; in the assay on A549 it was 330 nM; in assay [2], 70 nM.
Turning to `COc1cc2c(Oc3ccc(NC(=O)c4cn(-c5ccc(Br)cc5)nn4)cc3F)ccnc2cc1OCCCN1CCCC1`, the IC50 in the assay on HT-29 worked out at 190 nM; in assay [1] it was 200 nM; in the assay with A549, 370 nM; in assay [2], 120 nM.
The corresponding values for `COc1cc2c(Oc3ccc(NC(=O)c4cn(-c5ccccc5Cl)nn4)cc3F)ccnc2cc1OCCCN1CCN(C)CC1` are 160 nM, 290 nM, 150 nM and 70 nM.
In the case of `COc1cc2c(Oc3ccc(NC(=O)c4cn(-c5c(C)cccc5C)nn4)cc3F)ccnc2cc1OCCCN1CCCC1`, the IC50 is 2240 nM in the assay with HT-29, 1560 nM in assay [1], 1240 nM in the assay with A549 and 3490 nM in assay [2].
As to `COc1cc2c(Oc3ccc(NC(=O)c4cn(-c5c(C)cccc5C)nn4)cc3F)ccnc2cc1OCCCN1CCCCC1`, the values for the IC50 (in the assay on HT-29; in assay [1]; in assay [2]) were 3690 nM, 3520 nM and 2140 nM, respectively.
As for `COc1cc2c(Oc3ccc(NC(=O)c4cn(-c5ccccc5)nn4)cc3F)ccnc2cc1OCCCN1CCOCC1`, the 50% inhibitory concentration (IC50) turned out to be 350 nM in the assay with HT-29, 450 nM in assay [1], 720 nM in the assay on A549 and 110 nM in assay [2].
With `COc1cc2c(Oc3ccc(NC(=O)c4cn(-c5c(Cl)cccc5Cl)nn4)cc3F)ccnc2cc1OCCCN1CCCCC1`, the IC50 in the assay on HT-29 came out at 240 nM; in assay [1] it was 280 nM; with A549 it was 150 nM.
Take `COc1cc2c(Oc3ccc(NC(=O)c4cn(-c5ccccc5Cl)nn4)cc3F)ccnc2cc1OCCCN1CCOCC1`: the IC50 was 240 nM in the assay with HT-29, 210 nM in assay [1], 530 nM in the assay on A549 and 270 nM in assay [2].
The matching figures for `COc1cc2c(Oc3ccc(NC(=O)c4cn(-c5ccc(F)c(F)c5)nn4)cc3F)ccnc2cc1OCCCN1CCN(C)CC1`: 430 nM, 250 nM, 200 nM and 160 nM.
As to `COc1cc2c(Oc3ccc(NC(=O)c4cn(-c5ccccc5C)nn4)cc3F)ccnc2cc1OCCCN1CCCC1`, the IC50 is 1200 nM with HT-29, 1260 nM in assay [1] and 900 nM in the assay on A549.
In the case of `COc1cc2c(Oc3ccc(NC(=O)c4cn(-c5ccc(Br)cc5)nn4)cc3F)ccnc2cc1OCCCN1CCCCC1`, the IC50 was determined as 260 nM in the assay with HT-29, 360 nM in assay [1], 230 nM in the assay on A549 and 150 nM in assay [2].
Turning to `COc1cc2c(Oc3ccc(NC(=O)c4cn(-c5ccccc5C)nn4)cc3F)ccnc2cc1OCCCN1CCC(C)CC1`, the values for the IC50 (in the assay on HT-29; in assay [1]; in the assay with A549) were 2380 nM, 2730 nM and 3500 nM, respectively.
